# Test results published in patent US4640922A, “3N-substituted 3,4-dihydropyrimidines as agents for treating disorders of cardiovascular system” (Suntory Limited, priority 1984, dated 1987).
# Like-named read-outs stand apart in the source and are kept apart here.
# Experiments:
# [1] = system: coronary artery (isolated heart); assay: Coronary vascular dilative effect, isolated perfused guinea pig heart, Langendorff's method (perfusion pressure); conditions: for Pharmacological data ED50: 0.1 ml injected into coronary artery, isolated guinea pig heart, 37° C., 6 ml/minute; for coronary vascular dilative effects (in words): Langendorff's method, guinea pig heart
# Protocol: The coronary vascular dilative effect of 3N-substituted 3,4-dihydropryrimidine derivatives was tested.
# Heartly guinea pigs (weight 400-500 g) were clubbed dead and their hearts were immediately isolated. The hearts were perfused with Krebs-Henseleit solution bubbled with a mixture of 95% O2 +5% CO2 and maintained at 37° C. at a certain rate of 6 ml/minute according to Langendorff's method [J. Pharmacol. Methods 2, 143 (1979)]. The perfusion pressure was determined by a pressure transducer. Samples were prepared by dissolving 1 mg of a test compound in 1 ml of a mixture of dimethylsulfoxide and physiological saline (1:9) and diluting with physiological saline the solution to the predetermined concentration. 0.1 ml of the diluted solution was administered into the coronary artery via a rubber tube connected to an aorta cannula to obtain ED50 (μg/heart) data as shown in Table 1. The numbers of the compounds in the Table correspond respectively to those of the working examples described above.
# [2] = system: vertebral artery; assay: Blood flow and blood vessel resistance of vertebral artery in anesthetized dogs; assay type: in vivo, dog; conditions: Canis lupus familiaris, iv
# Protocol: (§1) The pharmacological effects of the compounds of the present invention with respect to the blood flow and blood vessel resistance of vertebral artery and systemic blood pressure (average pressure) in anesthetized dogs. […] The first and second ribs were cut open to expose the left vertebral artery. A probe was attached to the origin of the artery and the blood flow was measured with an electromagnetic rheometer (Model MF-27, product of Nihon Koden K.K.) At the same time, continuous measurement of the following parameters was made: systemic blood pressure (average pressure) at the right femoral artery, the ECG in the second induction period, the heart beat with a tachometer driven by the R wave, and the blood vessel resistance determined by loading a multiplication/division unit (EO-601 G, product of Nihon Koden K.K.) with the average values of blood pressure and blood flow in the vertebral artery. All of these parameters were recorded simultaneously on a polygraph (RM-600, product of Nihon Koden, K.K.) All of the test compounds were injected through a cannula inserted into the femoral […].
# [3] = system: systemic blood pressure; assay: Systemic blood pressure (average pressure) in anesthetized dogs; assay type: in vivo, dog; conditions: Canis lupus familiaris, iv, read-out: Average blood pressure, percentage compared with control
# Protocol: as §1
# [4] = 0.0003 mg/kg, % of value before administration, average ± standard error, read-out: Vertebral artery vessel resistance, percentage compared with control
# [5] = 0.001 mg/kg, % of value before administration, average ± standard error, read-out: Vertebral artery blood flow, percentage compared with control
# [6] = 0.001 mg/kg, % of value before administration, average ± standard error, read-out: Vertebral artery vessel resistance, percentage compared with control
# [7] = % of value before administration, average ± standard error, read-out: Vertebral artery blood flow, percentage compared with control
# [8] = % of value before administration, average ± standard error, read-out: Vertebral artery vessel resistance, percentage compared with control
# [9] = 0.1 mg/kg, % of value before administration, average ± standard error, read-out: Vertebral artery blood flow, percentage compared with control
# [10] = 0.1 mg/kg, % of value before administration, average ± standard error, read-out: Vertebral artery vessel resistance, percentage compared with control
# [11] = 0.001 mg/kg, % of value before administration, average ± standard error
# [12] = % of value before administration, average ± standard error
# [13] = 0.1 mg/kg, % of value before administration, average ± standard error
# [14] = read-out: Vertebral artery blood flow, percentage compared with control
# [15] = read-out: Vertebral artery vessel resistance, percentage compared with control
structure (smiles),measurement,setting,value
"CCOC(=O)C1=C(C)N=C(C)N(C(=O)OCC)C1c1ccccc1[N+](=O)[O-] (centres unmarked) [Compound 1, 2,6-Dimethyl-5-ethoxycarbonyl-3-N-ethoxycarbonyl-4-(2'-nitrophenyl)-3,4-dihydropyrimidine]",Pharmacological data ED50,[1],0.055 μg/heart
same,coronary vascular dilative effects (in words),[1],extremely strong coronary vascular dilative effects
same,response vs control in vivo at 0.0003 mg/kg,"[2]; 0.0003 mg/kg, % of value before administration, average ± standard error, read-out: Vertebral artery blood flow, percentage compared with control",107 ± 4%
same,response vs control in vivo at 0.0003 mg/kg,[2]; [4],93 ± 5%
same,response vs control in vivo at 0.001 mg/kg,[2]; [5],115 ± 9%
same,response vs control in vivo at 0.001 mg/kg,[2]; [6],89 ± 4%
same,response vs control in vivo at 0.003 mg/kg,[2]; [7],136 ± 6%
same,response vs control in vivo at 0.003 mg/kg,[2]; [8],72 ± 5%
same,response vs control in vivo at 0.01 mg/kg,[2]; [7],172 ± 20%
same,response vs control in vivo at 0.01 mg/kg,[2]; [8],55 ± 3%
same,response vs control in vivo at 0.03 mg/kg,[2]; [7],184 ± 26%
same,response vs control in vivo at 0.03 mg/kg,[2]; [8],50 ± 6%
same,response vs control in vivo at 0.1 mg/kg,[2]; [9],234%
same,response vs control in vivo at 0.1 mg/kg,[2]; [10],41%
same,response vs control in vivo at 0.0003 mg/kg,"[3]; 0.0003 mg/kg, % of value before administration, average ± standard error",94 ± 3%
same,response vs control in vivo at 0.001 mg/kg,[3]; [11],90 ± 1%
same,response vs control in vivo at 0.003 mg/kg,[3]; [12],88 ± 1%
same,response vs control in vivo at 0.01 mg/kg,[3]; [12],79 ± 3%
same,response vs control in vivo at 0.03 mg/kg,[3]; [12],74 ± 4%
same,response vs control in vivo at 0.1 mg/kg,[3]; [13],75%
"CCOC(=O)C1=C(Cl)N=C(C)N(C(=O)OC)C1c1cccc([N+](=O)[O-])c1 (centres unmarked) [Compound 2, 6-Chloro-5-ethoxycarbonyl-3-N-methoxycarbonyl-2-methyl-4-(3'-nitrophenyl)-3,4-dihydropyrimidine]",Pharmacological data ED50,[1],0.98 μg/heart
"CCOC(=O)C1=C(C)N=C(C)N(C(=O)OC)C1c1cccc([N+](=O)[O-])c1 (centres unmarked) [Compound 3, 2,6-Dimethyl-5-ethoxycarbonyl-3-N-methoxycarbonyl-4-(3'-nitrophenyl)-3,4-dihydropyrimidine]",Pharmacological data ED50,[1],1.45 μg/heart
CCOC(=O)C1=C(Cl)N=C(C)N(C(=O)OCC)C1c1ccccc1[N+](=O)[O-] (centres unmarked) [Compound 4],Pharmacological data ED50,[1],0.25 μg/heart
same,response vs control in vivo at 0.001 mg/kg,[2]; [5],107 ± 4%
same,response vs control in vivo at 0.001 mg/kg,[2]; [6],91 ± 5%
same,response vs control in vivo at 0.003 mg/kg,[2]; [7],113 ± 6%
same,response vs control in vivo at 0.003 mg/kg,[2]; [8],86 ± 7%
same,response vs control in vivo at 0.01 mg/kg,[2]; [7],143 ± 12%
same,response vs control in vivo at 0.01 mg/kg,[2]; [8],66 ± 4%
same,response vs control in vivo at 0.03 mg/kg,[2]; [7],147 ± 16%
same,response vs control in vivo at 0.03 mg/kg,[2]; [8],61 ± 5%
same,response vs control in vivo at 0.1 mg/kg,[2]; [9],182 ± 16%
same,response vs control in vivo at 0.1 mg/kg,[2]; [10],51 ± 3%
same,response vs control in vivo at 0.001 mg/kg,[3]; [11],95 ± 1%
same,response vs control in vivo at 0.003 mg/kg,[3]; [12],93 ± 1%
same,response vs control in vivo at 0.01 mg/kg,[3]; [12],91 ± 2%
same,response vs control in vivo at 0.03 mg/kg,[3]; [12],88 ± 1%
same,response vs control in vivo at 0.1 mg/kg,[3]; [13],84 ± 2%
CCOC(=O)C1=C(C)N=C(C)N(C(=O)OC)C1c1ccccc1[N+](=O)[O-] (centres unmarked) [Compound 5],Pharmacological data ED50,[1],0.066 μg/heart
same,coronary vascular dilative effects (in words),[1],extremely strong coronary vascular dilative effects
CCOC(=O)C1=C(Cl)N=C(C)N(C(=O)OC)C1c1ccccc1[N+](=O)[O-] (centres unmarked) [Compound 6],Pharmacological data ED50,[1],0.70 μg/heart
CCOC(=O)N1C(C)=NC(C)=C(C(=O)OC)C1c1ccccc1[N+](=O)[O-] (centres unmarked) [Compound 7],Pharmacological data ED50,[1],0.40 μg/heart
CCOC(=O)C1=C(C)N=C(C)N(C(=O)OCC)C1c1ccccc1Br (centres unmarked) [Compound 8],Pharmacological data ED50,[1],0.033 μg/heart
same,coronary vascular dilative effects (in words),[1],extremely strong coronary vascular dilative effects
same,response vs control in vivo at 0.001 mg/kg,[2]; [5],110%
same,response vs control in vivo at 0.001 mg/kg,[2]; [6],89%
same,response vs control in vivo at 0.003 mg/kg,[2]; [7],117%
same,response vs control in vivo at 0.003 mg/kg,[2]; [8],81%
same,response vs control in vivo at 0.01 mg/kg,[2]; [7],140%
same,response vs control in vivo at 0.01 mg/kg,[2]; [8],64%
same,response vs control in vivo at 0.03 mg/kg,[2]; [7],182%
same,response vs control in vivo at 0.03 mg/kg,[2]; [8],48%
same,response vs control in vivo at 0.1 mg/kg,[2]; [9],211%
same,response vs control in vivo at 0.1 mg/kg,[2]; [10],40%
same,response vs control in vivo at 0.001 mg/kg,[3]; [11],93%
same,response vs control in vivo at 0.003 mg/kg,[3]; [12],87%
same,response vs control in vivo at 0.01 mg/kg,[3]; [12],81%
same,response vs control in vivo at 0.03 mg/kg,[3]; [12],83%
same,response vs control in vivo at 0.1 mg/kg,[3]; [13],79%
CCOC(=O)N1C(C)=NC(Cl)=C(C(=O)OC)C1c1ccccc1[N+](=O)[O-] (centres unmarked) [Compound 9],Pharmacological data ED50,[1],0.78 μg/heart
COC(=O)C1=C(Cl)N=C(C)N(C(=O)OC)C1c1ccccc1[N+](=O)[O-] (centres unmarked) [Compound 11],Pharmacological data ED50,[1],1.65 μg/heart
CCOC(=O)N1C(C)=NC(C)=C(C(=O)OC)C1c1cccc([N+](=O)[O-])c1 (centres unmarked) [Compound 14],Pharmacological data ED50,[1],1.1 μg/heart
COC(=O)C1=C(Cl)N=C(C)N(C(=O)OC)C1c1cccc([N+](=O)[O-])c1 (centres unmarked) [Compound 15],Pharmacological data ED50,[1],2.8 μg/heart
CCOC(=O)N1C(C)=NC(Cl)=C(C(=O)OC)C1c1cccc([N+](=O)[O-])c1 (centres unmarked) [Compound 16],Pharmacological data ED50,[1],10.0 μg/heart
CCOC(=O)C1=C(Cl)N=C(C)N(C(=O)OCC)C1c1ccc(SC)cc1 (centres unmarked) [Compound 18],Pharmacological data ED50,[1],0.37 μg/heart
CCOC(=O)C1=C(C)N=C(C)N(C(=O)OCC)C1c1ccc(SC)cc1 (centres unmarked) [Compound 19],Pharmacological data ED50,[1],0.58 μg/heart
CCOC(=O)C1=C(Cl)N=C(C)N(C(=O)OC)C1c1ccc(SC)cc1 (centres unmarked) [Compound 20],Pharmacological data ED50,[1],0.22 μg/heart
CCOC(=O)C1=C(C)N=C(C)N(C(=O)OC)C1c1ccc(SC)cc1 (centres unmarked) [Compound 21],Pharmacological data ED50,[1],1.0 μg/heart
"COC(=O)C1=C(C)NC(C)=C(C(=O)OCCN(C)Cc2ccccc2)C1c1cccc([N+](=O)[O-])c1 (centres unmarked) [Nicardipine, reference compound]",response vs control in vivo at 0.001 mg/kg,[2]; [5],123 ± 7%
same,response vs control in vivo at 0.001 mg/kg,[2]; [6],79 ± 4%
same,response vs control in vivo at 0.003 mg/kg,[2]; [7],147 ± 15%
same,response vs control in vivo at 0.003 mg/kg,[2]; [8],67 ± 7%
same,response vs control in vivo at 0.01 mg/kg,[2]; [7],183 ± 13%
same,response vs control in vivo at 0.01 mg/kg,[2]; [8],49 ± 3%
same,response vs control in vivo at 0.001 mg/kg,[3]; [11],90 ± 1%
same,response vs control in vivo at 0.003 mg/kg,[3]; [12],87 ± 2%
same,response vs control in vivo at 0.01 mg/kg,[3]; [12],80 ± 2%
"COC(=O)C1=C(C)NC(C)=C(C(=O)OC)C1c1ccccc1[N+](=O)[O-] [Nifedipine, reference compound]",response vs control in vivo at 0.0001 mg/kg,[2]; [14],114%
same,response vs control in vivo at 0.0003 mg/kg,[2]; [14],129%
same,response vs control in vivo at 0.001 mg/kg,[2]; [14],154%
same,response vs control in vivo at 0.0001 mg/kg,"[2]; 0.0001 mg/kg, % of value before administration, read-out: Vertebral artery vessel resistance, percentage compared with control",79%
same,response vs control in vivo at 0.0003 mg/kg,[2]; [4],67%
same,response vs control in vivo at 0.001 mg/kg,[2]; [6],57%
same,response vs control in vivo at 0.0001 mg/kg,[3],94%
same,response vs control in vivo at 0.0003 mg/kg,[3],94%
same,response vs control in vivo at 0.001 mg/kg,[3],87%
"COc1ccc(Cc2nccc3cc(OC)c(OC)cc23)cc1OC [Papaverine, reference compound]",response vs control in vivo at 0.1 mg/kg,[2]; [14],123 ± 4%
same,response vs control in vivo at 0.3 mg/kg,[2]; [14],151 ± 8%
same,response vs control in vivo at 1 mg/kg,[2]; [14],184 ± 14%
same,response vs control in vivo at 0.1 mg/kg,[2]; [15],78 ± 3%
same,response vs control in vivo at 0.3 mg/kg,[2]; [15],58 ± 3%
same,response vs control in vivo at 1 mg/kg,[2]; [15],43 ± 3%
same,response vs control in vivo at 0.1 mg/kg,[3],93 ± 1%
same,response vs control in vivo at 0.3 mg/kg,[3],83 ± 3%
same,response vs control in vivo at 1 mg/kg,[3],73 ± 4%
